Read-outs that look alike come from different tables or passages of the source.
Columns and labels:
Caco-2 cells = Caco-2 cells and perfused rat intestinal models; cited from earlier work
[1] = target: TTR in human blood plasma (Homo sapiens, UniProt P02766); experiment: Plasma selectivity binding to TTR, antibody capture/HPLC method; conditions: 10.8 μM compound in human plasma, 37° C., 18 h; maximum 2.0; lower limit because of wash losses
WT TTR [2] = target: T1, WT TTR (Homo sapiens, UniProt P02766); experiment: Stagnant transthyretin aggregation (fibril formation) assay, turbidity; assay type: biochemical
T1 construct: made in house; host or cells: E. coli
Protocol: Stagnant aggregation assays were performed as described previously (Lashuel, H. A.; et al. Biochemistry 1999, 38, 13560-13573). A 0.495 mL sample of TTR (7.6 μM (0.4 mg/mL) in 10 mM sodium phosphate, 100 mM KCl, and 1 mM EDTA at pH 7.0) was incubated with 5 μL of isoflavone or flavone inhibitor in DMSO (0.76 mM or 1.44 mM). After 30 min, the samples were diluted with 0.5 mL of 200 mM acetate buffer (pH 4.2, final pH 4.4 for WT and V122I, pH 4.8, final pH 5.0 for V30M) containing 100 mM KCl and 1 mM EDTA. Samples were briefly vortexed and then further incubated at 37° C. for 72 h without stirring. The extent of aggregation was probed by turbidity measurements at 350 and 400 nm on an HP 8453 UV-visible spectrometer. Single-time point samples (72 h) were vortexed immediately before the measurement.
Aggregate formation is reported relative to WT or mutant TTR homotetramer where amount of aggregation in the absence of inhibitor is assigned to be 100%.
Blue bars represent data from an aggregate formation assay wherein tetrameric TTR (3.6 μM) is preincubated with inhibitor (3.6 μM or 7.2 μM) for 30 min prior to lowering the pH to 4.4 (72 h). The Y axis in each bar graph (optical density at 350 nm) represents aggregate formation relative to WT TTR (3.6 μM) assigned as 100%.

[3] = cited from earlier work
[4] = even at the relatively high concentrations employed; cited from earlier work
V30M TTR = target: T2, V30M TTR (Homo sapiens, UniProt P02766, V50M); experiment: Urea-mediated tetramer dissociation by far-UV circular dichroism; assay type: biochemical; conditions: V30M TTR 1.8 μM, 6.0 M urea, after 120 h
T2 construct: made in house; host or cells: E. coli
Protocol: (§1) TTR (400 μL, 0.25 mg/mL; 4.5 μM tetramer) was pre-incubated with genistein at concentrations of either 4.5 or 9.0 μM for 18 h at 25° C. Urea (10M, 600 μL) in 50 mM phosphate buffer (pH 7.0) containing 100 mM KCl, 1 mM EDTA and 1 mM DTT was added to the samples immediately prior to the first measurement (1.0 mL total volume, 6.0 M urea, 0.1 mg/mL TTR (1.8 μM tetramer) final concentration). Circular dichroism spectra were recorded as a function of time up to 120 h (25° C.) using a wavelength scan from 220 to 214 nm, sampling every 0.5 nm. The signal from 218 to 215 was averaged and plotted to determine the fraction of TTR tetramer that was dissociated and unfolded at each time point.
(§2) Genistein was further tested for its ability to kinetically stabilize tetrameric TTR against urea-induced dissociation. Since dissociation of the tetramer is required for urea-induced monomer denaturation, it is possible to monitor rate-limiting tetramer dissociation by linking this process to fast monomer unfolding in a post-transition urea concentration (6 M), rendering the process irreversible. The rate and extent of tetramer dissociation at different small molecule concentrations was monitored by far-UV CD spectroscopy in 6.0 M urea. Genistein exerts its most dramatic effect on the amplitude of WT TTR tetramer dissociation (FIG. 4A). At equimolar amounts of genistein and WT TTR (1.8 μM), only 10% of the protein dissociates and unfolds after 120 h, implying that the remainder is stabilized as a consequence of small molecule binding. This compares to 33% of dissociation for V122I (FIG. 4C, triangles) and 87% V30M (FIG. 4B, triangles) dissociating under identical conditions. When the inhibitor concentration (3.6 μM) is twice that of TTR (1.8 μM), only 1% of WT TTR (FIG. 4A, diamonds), 18% of V122I (FIG. 4C, diamonds), and 70% of V30M (FIG. […]) dissociates over the same time period.
(§3) FIG. 4 illustrates a series of graphs showing the rate of urea-mediated tetramer dissociation (6 M) curves for (A) WT (circles), (B) V30M, and (C) V122I TTR. TTR dissociation is slowed dramatically when WT and the variants are preincubated with genistein (1.8 μM, triangles; 3.6 μM, diamonds). The far-UV CD ellipticity at 214-218 nm was compared to that of WT to determine the fraction of TTR that dissociated and rapidly unfolded at each time point.

V122I TTR = target: T3, V122I TTR (Homo sapiens, UniProt P02766, V142I); experiment: as above; assay type: biochemical; conditions: V122I TTR 1.8 μM, 6.0 M urea, after 120 h
T3 construct: made in house; host or cells: E. coli
Protocol: as §1, §2, §3

WT TTR [5] = target: T1, WT TTR; experiment: as above; assay type: biochemical; conditions: WT TTR 1.8 μM, 6.0 M urea, after 120 h
Protocol: as §1, §2, §3

WT TTR [6] = target: T1, WT TTR; experiment: Isothermal titration calorimetry; assay type: binding
Protocol: The dissociation constants characterizing the binding of genistein to WT TTR were determined using a Microcal isothermal titration calorimeter (Microcal Inc., Northhampton, Mass.). A solution of the small molecule (final concentration 432 μM in 25 mM Tris (pH 8.0) containing 100 mM KCl, 1 mM EDTA, 10% EtOH,) was prepared and titrated into an ITC cell containing WT TTR (12 μM in 25 mM Tris (pH 8.0) containing 100 mM KCl, 1 mM EDTA, 10% EtOH). For all runs, a small preliminary injection was followed by identical injections (2.0-5.0 μL) up to a ligand:protein molar ratio of at least 4:1. The data were fit by a nonlinear least squares approach to either an identical binding sites model, or a sequential interacting binding sites model (Foss, T. R.; et al. J. Mol. Biol. 2005, in press) utilizing Microsoft Excel (Microsoft Corporation, Redmond, Wash.) with the Solver plugin.
Isothermal titration calorimetry was employed to determine the dissociation constants of the binding of genistein to WT TTR at pH 8.0 (25° C.). Integration of the thermogram after subtraction of blanks yielded a binding isotherm that fit equally well to a model of two sequential interacting binding sites with negative cooperativity or two identical non-interacting sites. The fit to sequential binding sites yielded dissociation constants of Kd1=40±25 nM, Kd2=1400±170 nM. Fitting the data to identical binding sites gave Kd1=Kd2=845±45 nM with an occupancy of 1.92±0.07.

## O=c1c(-c2ccc(O)cc2)coc2cc(O[C@@H]3O[C@H](CO)[C@@H](O)[C@H](O)[C@H]3O)cc(O)c12 [genistin, reference compound]
Caco-2 cells
  permeability, lower than corresponding aglycone (genistein): approximately 5 fold

## O=c1c(-c2ccc(O)cc2)coc2cc(O)ccc12 [daidzein, reference compound]
[1]
  plasma selectivity: binding stoichiometry to TTR: ≥ 0.75 equivalents per tetramer
WT TTR [2]; inhibitor 7.2 μM, twice that of TTR
  decrease in aggregation inhibition potency relative to genistein: approximately 4 fold

## O=c1c(-c2ccc(O)cc2)coc2cc(O)cc(O)c12 [genistein]
[3]; dose of 16 mg/kg of body weight, oral
  in vivo plasma concentrations of genistein: 0.1 to 8 µM
[3]; men
  half-life in plasma: 3.2 h
[3]; women
  half-life in plasma: 3.8 h
[4]
  adverse health effects in toxicity studies: does not appear to cause adverse health effects
Caco-2 cells
  intestinal absorption: efficiently absorbed into the intestine
[1]
  plasma selectivity: binding stoichiometry to TTR: 1.45 equivalents per tetramer
V30M TTR; genistein 1.8 μM
  protein that dissociates and unfolds: 87%
V30M TTR; genistein 3.6 μM
  protein that dissociates and unfolds: 70%
V122I TTR; genistein 1.8 μM
  protein that dissociates and unfolds: 33%
V122I TTR; genistein 3.6 μM
  protein that dissociates and unfolds: 18%
WT TTR [5]; genistein 1.8 μM
  protein that dissociates and unfolds: 10%
WT TTR [5]; genistein 3.6 μM
  protein that dissociates and unfolds: 1%
WT TTR [6]; Kd1, two sequential interacting binding sites model (negative cooperativity), pH 8.0, 25° C.
  Kd: 40 nM
WT TTR [6]; Kd1=Kd2, two identical non-interacting sites model, pH 8.0, 25° C.
  Kd: 845 nM
WT TTR [6]; read-out: Kd2, negative cooperativity, ITC
  Kd: 1400 nM
WT TTR [6]; read-out: Kd2, two sequential interacting binding sites model (negative cooperativity), pH 8.0, 25° C.
  Kd: 1400 nM

## O=c1cc(-c2ccc(O)cc2)oc2cc(O)cc(O)c12 [apigenin]
WT TTR [2]; pH 4.4
  decrease in WT TTR aggregation inhibition relative to genistein: 2 fold
